Several values for one entry are separate records, joined by “and”; a condition that tells them apart may be missing. Equal entries are not always repeated.
Tests used:
[1] = tested on: intracellular S. flexneri 5a M90T in TC7 cells; experiment: microbe, parasite or virus in culture; assay type: cell-based, Shigella flexneri
[2] = tested on: non-growing S. aureus DSM2569; experiment: Dose-dependent killing analysis (CFU spot-plating) of stationary-phase S. aureus; assay type: cell-based, Staphylococcus aureus; settings: S. aureus; for log10(CFU/ml) of treated nongrowing bacteria (single replicates): before treatment 9,097
Method in brief: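 Survival was scored as CFU after overnight growth at 37 °C on LB agar, using spots from 10-fold PBS dilutions of treated cultures. Non-growing S. aureus DSM2569 had been exposed to compound for 24 h in 1:4 CA-MHB, pH 7.4. Three biological replicates were run.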

non-growing UPEC CFT073 = experiment: Dose-dependent killing analysis (CFU spot-plating) of stationary-phase UPEC; assay type: cell-based, Escherichia coli
Method in brief: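 Killing assessed by CFU counts: overnight 37 °C LB agar spot plates (10 μl drops of 10-fold PBS dilutions) scored at the lowest dilution with distinct colonies. Samples were compound-treated non-growing UPEC CFT073, 200 μl per well. Performed as three biological replicates.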

[3] = tested on: non-growing P. aeruginosa DSM1117; experiment: Dose-dependent killing analysis (CFU spot-plating) of stationary-phase P. aeruginosa; assay type: cell-based, Pseudomonas aeruginosa; settings: P. aeruginosa; for log10(CFU/ml) of treated nongrowing bacteria (single replicates): before treatment 8.887
Method in brief: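 Viability by CFU: samples serially diluted 10-fold in PBS, spotted on LB agar, grown overnight at 37 °C, and colonies counted at the lowest resolvable dilution. Non-growing P. aeruginosa DSM1117 had been dosed for 24 h in 1:4 CA-MHB (pH 7.4); three biological replicates.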

## O=C(O)c1cn(-c2ccc(F)cc2)c2cc(N3CCNCC3)c(F)cc2c1=O [Sarafloxacin]
[1]; Shigella flexneri, TC7, 14 h
  IC50: 114 nM
[1]; TC7 cells infected with GFP-expressing S. flexneri, 14 h treatment, 2 x MIC
  Fluorescence intensity (RFU), Mean, 2 x MIC: 5001.97 RFU
[1]; TC7 cells infected with GFP-expressing S. flexneri, 14 h treatment, 4 x MIC
  Fluorescence intensity (RFU), Mean, 4 x MIC: 3626.47 RFU
[1]; TC7 cells infected with GFP-expressing S. flexneri, 14 h treatment, 8 x MIC
  Fluorescence intensity (RFU), Mean, 8 x MIC: 3165.28 RFU
[1]; TC7 cells infected with GFP-expressing S. flexneri, 14 h treatment, 16 x MIC
  Fluorescence intensity (RFU), Mean, 16 x MIC: 2660.39 RFU
[1]; TC7 cells infected with GFP-expressing S. flexneri, 14 h treatment, 32 x MIC
  Fluorescence intensity (RFU), Mean, 32 x MIC: 2149.72 RFU
[1]; TC7 cells infected with GFP-expressing S. flexneri, 14 h treatment, MIC
  Fluorescence intensity (RFU), Mean, MIC: 7309.11 RFU
[2]; drug concentration 0.1
  killing, average Δlog10(CFU/ml): 0.203 log10(CFU/ml)
  log10(CFU/ml) of treated nongrowing bacteria (single replicates): 8.845 log10(CFU/ml) and 8.903 log10(CFU/ml) and 8.934 log10(CFU/ml)
[2]; drug concentration 0.5
  killing, average Δlog10(CFU/ml): 0.133 log10(CFU/ml)
  log10(CFU/ml) of treated nongrowing bacteria (single replicates): 8.869 log10(CFU/ml) and 9.111 log10(CFU/ml) and 8.914 log10(CFU/ml)
[2]; drug concentration 2.5
  killing, average Δlog10(CFU/ml): 0.565 log10(CFU/ml)
  log10(CFU/ml) of treated nongrowing bacteria (single replicates): 8.681 log10(CFU/ml) and 8.914 log10(CFU/ml) and 8.000 log10(CFU/ml)
[2]; drug concentration 10
  killing, average Δlog10(CFU/ml): 0.598 log10(CFU/ml)
  log10(CFU/ml) of treated nongrowing bacteria (single replicates): 8.462 log10(CFU/ml) and 8.653 log10(CFU/ml) and 8.380 log10(CFU/ml)
non-growing UPEC CFT073; E. coli in 1:4 CA-MHB (pH 7.4), drug concentration 0.25
  killing, average Δlog10(CFU/ml): 0.025 log10(CFU/ml)
non-growing UPEC CFT073; E. coli in 1:4 CA-MHB (pH 7.4), drug concentration 0.25, before treatment 8.977
  log10(CFU/ml) of treated nongrowing bacteria (single replicates): 9.301 log10(CFU/ml) and 8.477 log10(CFU/ml) and 9.079 log10(CFU/ml)
non-growing UPEC CFT073; E. coli in 1:4 CA-MHB (pH 7.4), drug concentration 0.5
  killing, average Δlog10(CFU/ml): 0.172 log10(CFU/ml)
non-growing UPEC CFT073; E. coli in 1:4 CA-MHB (pH 7.4), drug concentration 0.5, before treatment 8.977
  log10(CFU/ml) of treated nongrowing bacteria (single replicates): 9.000 log10(CFU/ml) and 8.954 log10(CFU/ml) and 8.462 log10(CFU/ml)
non-growing UPEC CFT073; E. coli in 1:4 CA-MHB (pH 7.4), drug concentration 1
  killing, average Δlog10(CFU/ml): 0.391 log10(CFU/ml)
non-growing UPEC CFT073; E. coli in 1:4 CA-MHB (pH 7.4), drug concentration 1, before treatment 8.977
  log10(CFU/ml) of treated nongrowing bacteria (single replicates): 9.114 log10(CFU/ml) and 8.532 log10(CFU/ml) and 8.114 log10(CFU/ml)
non-growing UPEC CFT073; E. coli in 1:4 CA-MHB (pH 7.4), drug concentration 2.5
  killing, average Δlog10(CFU/ml): 1.103 log10(CFU/ml)
non-growing UPEC CFT073; E. coli in 1:4 CA-MHB (pH 7.4), drug concentration 2.5, before treatment 8.977
  log10(CFU/ml) of treated nongrowing bacteria (single replicates): 8.398 log10(CFU/ml) and 7.903 log10(CFU/ml) and 7.322 log10(CFU/ml)
non-growing UPEC CFT073; E. coli in 1:4 CA-MHB (pH 7.4), drug concentration 5
  killing, average Δlog10(CFU/ml): 1.741 log10(CFU/ml)
non-growing UPEC CFT073; E. coli in 1:4 CA-MHB (pH 7.4), drug concentration 5, before treatment 8.977
  log10(CFU/ml) of treated nongrowing bacteria (single replicates): 7.491 log10(CFU/ml) and 7.176 log10(CFU/ml) and 7.041 log10(CFU/ml)
non-growing UPEC CFT073; E. coli in 1:4 CA-MHB (pH 7.4), drug concentration 10
  killing, average Δlog10(CFU/ml): 2.143 log10(CFU/ml)
non-growing UPEC CFT073; E. coli in 1:4 CA-MHB (pH 7.4), drug concentration 10, before treatment 8.977
  log10(CFU/ml) of treated nongrowing bacteria (single replicates): 7.279 log10(CFU/ml) and 6.845 log10(CFU/ml) and 6.380 log10(CFU/ml)
non-growing UPEC CFT073; E. coli in LPM (pH 5.5), drug concentration 0.25
  killing, average Δlog10(CFU/ml): 0.072 log10(CFU/ml)
non-growing UPEC CFT073; E. coli in LPM (pH 5.5), drug concentration 0.25, before treatment 7.350
  log10(CFU/ml) of treated nongrowing bacteria (single replicates): 7.079 log10(CFU/ml) and 6.477 log10(CFU/ml) and 8.279 log10(CFU/ml)
non-growing UPEC CFT073; E. coli in LPM (pH 5.5), drug concentration 0.5
  killing, average Δlog10(CFU/ml): 0.127 log10(CFU/ml)
non-growing UPEC CFT073; E. coli in LPM (pH 5.5), drug concentration 0.5, before treatment 7.350
  log10(CFU/ml) of treated nongrowing bacteria (single replicates): 6.778 log10(CFU/ml) (2×) and 8.114 log10(CFU/ml)
non-growing UPEC CFT073; E. coli in LPM (pH 5.5), drug concentration 1
  killing, average Δlog10(CFU/ml): 0.084 log10(CFU/ml)
non-growing UPEC CFT073; E. coli in LPM (pH 5.5), drug concentration 1, before treatment 7.350
  log10(CFU/ml) of treated nongrowing bacteria (single replicates): 6.477 log10(CFU/ml) and 7.146 log10(CFU/ml) and 8.176 log10(CFU/ml)
non-growing UPEC CFT073; E. coli in LPM (pH 5.5), drug concentration 2.5
  killing, average Δlog10(CFU/ml): 0.011 log10(CFU/ml)
non-growing UPEC CFT073; E. coli in LPM (pH 5.5), drug concentration 2.5, before treatment 7.350
  log10(CFU/ml) of treated nongrowing bacteria (single replicates): 7.114 log10(CFU/ml) and 7.000 log10(CFU/ml) and 7.903 log10(CFU/ml)
non-growing UPEC CFT073; E. coli in LPM (pH 5.5), drug concentration 5
  killing, average Δlog10(CFU/ml): -0.00245 log10(CFU/ml)
non-growing UPEC CFT073; E. coli in LPM (pH 5.5), drug concentration 5, before treatment 7.350
  log10(CFU/ml) of treated nongrowing bacteria (single replicates): 6.903 log10(CFU/ml) and 7.114 log10(CFU/ml) and 8.041 log10(CFU/ml)
non-growing UPEC CFT073; E. coli in LPM (pH 5.5), drug concentration 10
  killing, average Δlog10(CFU/ml): 0.353 log10(CFU/ml)
non-growing UPEC CFT073; E. coli in LPM (pH 5.5), drug concentration 10, before treatment 7.350
  log10(CFU/ml) of treated nongrowing bacteria (single replicates): 6.699 log10(CFU/ml) and 6.845 log10(CFU/ml) and 7.447 log10(CFU/ml)
[3]; drug concentration 0.1
  killing, average Δlog10(CFU/ml): 0.295 log10(CFU/ml)
  log10(CFU/ml) of treated nongrowing bacteria (single replicates): 8.699 log10(CFU/ml) and 8.903 log10(CFU/ml) and 8.176 log10(CFU/ml)
[3]; drug concentration 0.5
  killing, average Δlog10(CFU/ml): 1.719 log10(CFU/ml)
  log10(CFU/ml) of treated nongrowing bacteria (single replicates): 7.301 log10(CFU/ml) and 6.602 log10(CFU/ml) and 7.602 log10(CFU/ml)
[3]; drug concentration 2.5
  killing, average Δlog10(CFU/ml): 3.802 log10(CFU/ml)
  log10(CFU/ml) of treated nongrowing bacteria (single replicates): 5.301 log10(CFU/ml) and 5.176 log10(CFU/ml) and 4.778 log10(CFU/ml)
[3]; drug concentration 10
  killing, average Δlog10(CFU/ml): 4.887 log10(CFU/ml)
  log10(CFU/ml) of treated nongrowing bacteria (single replicates): =<4 log10(CFU/ml)
